Reference: US20090312406A1, “COUMARIN COMPOUNDS AND THEIR USE FOR TREATING VIRAL INFECTION” (priority 2008, published 2009)
Where two headings read alike, the source gives them in different places.

What was measured:
[1] = Cytotoxicity (CC50) of the compounds tested in the anti-HSV assay; assay type: cell-based; conditions: African green monkey, Vero cells; Table 5; read-out: CC50 (μM), 50% cytotoxicity concentration
HIV-1 = test: Inhibition of HIV-1 replication in peripheral blood mononuclear cells, viral RNA by real-time PCR; conditions: Human immunodeficiency virus 1, PBMC
Procedure: Equal amounts of wild-type and mutant viruses were used to infect 5×10^4 peripheral blood mononuclear cells (PBMC) in 1.5 mL medium containing DMSO or various concentrations of a test compound. A half-milliliter of the culture medium was collected from each culture at days 3, 5, and 7. Viral RNA was extracted from the collected culture supernatants and the viral titers (copies/mL) were determined by real-time PCR. The percentage of inhibition was calculated as [100−(VD/VC)]×100%, where VD and VC refer to the virus titers in the presence and absence of the test compound, respectively.

[2] = system: herpes simplex virus type 1; test: In vitro assessment of anti-HSV activity, plaque reduction assay in Vero cells (Example 8); assay type: cell-based
Procedure: Anti-HSV activities of compounds described herein were evaluated by performing a plaque reduction assay using monolayer cultures of Vero cells in 24-well culture plates. A cell monolayer was infected with herpes simplex virus type 1 (50 pfu/well) and incubated at 37° C. with 5% CO2 for 1 h. The infected cell monolayer was then washed three times with PBS and overlaid with a solution (maintenance medium containing 1% methylcellulose and various concentrations of a test compound). After 72 h of incubation at 37° C., the cell monolayer was fixed with 10% formalin and stained with 1% crystal violet. […] The minimal concentration of a compound required to reduce 50% of plaque numbers (EC50) was calculated by regression analysis of the dose-response curves generated from the plaque assay.

[3] = system: Influenza A/WSN/33 (H1N1) virus; test: In vitro anti-influenza virus assay (neutralization test), cytopathic effect on MDCK cells; assay type: cell-based
Procedure: (§1) Anti-influenza activities of the coumarin compounds were evaluated by measuring the ability of a test compound to inhibit the cytopathic effect induced by an influenza virus on MDCK cells. The 96-well tissue culture plates were seeded with 200 μL of MDCK cells at a concentration of 1.1×10^5 cells/mL in DMEM with 10% fetal bovine serum (FBS). The plates were incubated for 24-30 h at 37° C. and were used at about 90% confluency. Influenza A/WSN/33 (H1N1) virus (100 TCID50) was added to the cells and incubated at 35° C. for 1 h. After adsorption, the infected cell plates were overlaid with 50 μL of DMEM plus 2% FBS and a test compound with different concentrations. The plate was incubated at 35° C. for 72 h. At the end of incubation, the plates were fixed by the addition of 100 μL of 4% formaldehyde for 1 h at room temperature. After the removal of formaldehyde, the plates were stained with 0.1% crystal violet for 15 min at room temperature. The plates were washed and dried, and the density of the well was measured at 570 nm. The concentration required for a test compound to reduce the virus-induced cytopathic effect (CPE) by 50% relative to the virus control was expressed as IC50.
(§2) Compounds 1 and 95 were also tested on various influenza virus strains. Amantadine or Relenza was also tested for comparison. IC50 is defined as the concentration required for a test compound to reduce the virus-induced cytopathic effect (CPE) by 50% relative to the virus control.

[4] = system: Influenza A/TW/785/05 (H1N1); test: Anti-influenza CPE neutralization test on MDCK cells; assay type: cell-based; conditions: Influenza A virus
Procedure: as §1, §2

Influenza B/TW/710/05 = test: as above; assay type: cell-based; conditions: Influenza B virus, Influenza B/TW/710/05, CPE
Procedure: as §1, §2

Influenza B/TW/99/07 = test: as above; assay type: cell-based; conditions: Influenza B virus, Influenza B/TW/99/07, CPE
Procedure: as §1, §2

[5] = system: Influenza A/Udorn/72 (H3N2); test: as above; assay type: cell-based; conditions: Influenza A virus
Procedure: as §1, §2

Influenza B/TW/70325/05 = test: as above; assay type: cell-based; conditions: Influenza B virus, Influenza B/TW/70325/05, CPE
Procedure: as §1, §2

[6] = system: Influenza A/TW/141/04 (H1N1); test: as above; assay type: cell-based; conditions: Influenza A virus
Procedure: as §1, §2

[7] = system: Influenza A/TW/83/05 (H3N2); test: as above; assay type: cell-based; conditions: Influenza A virus
Procedure: as §1, §2

[8] = system: Influenza A/TW/3446/04 (H3N2); test: as above; assay type: cell-based; conditions: Influenza A virus
Procedure: as §1, §2

Enterovirus 71 (4643) = test: In vitro EV 71 neutralization assay, cytopathic effect on RD cells; assay type: cell-based; conditions: Enterovirus A; Enterovirus 71 (4643), RD cells, CPE; read-out: IC50
Procedure: (§3) This assay measured the ability of a test compound to inhibit the cytopathic effect induced by a picornavirus (EV71, Coxsackie Virus B3, or human rhinovirus 2) on RD cells. The method used for this assay is described in Chang et al., J Med Chem, 2005, 48(10), 3522-3535. More specifically, 96-well tissue culture plates were seeded with 200 μL of RD cells at a concentration of 3×10^5 cells/mL in DMEM with 10% FBS. The plates were incubated for 24-30 h at 37° C. and were used at about 90% confluency. Virus (100 TCID50) mixed with different concentrations of a test compound was added to the cells and incubated at 37° C. for 1 h. After adsorption, the infected cell plates were overlaid with 50 μL of DMEM plus 5% FBS and 2% DMSO. The plate was wrapped in Parafilm and incubated at 37° C. for 64 h. At the end of incubation, the plates were fixed by the addition of 100 μL of 0.5% glutaraldehyde for 1 h at room temperature. After the removal of glutaraldehyde, the plates were stained with 0.1% crystal violet for 15 min at room temperature. The plates were washed and dried, and the density of the well was measured at 570 nm. The concentration required for a test compound to reduce the virus-induced cytopathic effect (CPE) by 50% relative to the virus control is expressed as IC50.

Coxsackie B virus 3 = test: In vitro Coxsackie Virus B3 neutralization assay, cytopathic effect on RD cells; assay type: cell-based; conditions: Coxsackie B virus 3, RD cells, CPE
Procedure: as §3

Human rhinovirus 2 = test: In vitro human rhinovirus 2 neutralization assay, cytopathic effect on RD cells; assay type: cell-based; conditions: Rhinovirus A; Human rhinovirus 2, RD cells, CPE; read-out: IC50
Procedure: as §3

[9] = MDCK cells, 72 h, lower bound (10 nM), upper in μM, read-out: IC50 (concentration reducing virus-induced cytopathic effect by 50%)

Cc1cccc(-c2c(C(=O)c3ccccc3)oc3ccc4c(C)cc(=O)oc4c23)c1 [Compound 141]
CC50 [1]: > 100 µM
inhibition at 0.1 µM (HIV-1; 72 h, read-out: Inhibition (%) Day 3): 19%
inhibition at 0.1 µM (HIV-1; 120 h, read-out: Inhibition (%) Day 5): 71%
inhibition at 0.1 µM (HIV-1; 168 h, read-out: Inhibition (%) Day 7): 97%
SI, selectivity index = CC50/EC50 ([2]; CC50/EC50, HSV-1): >25641.03
EC50 ([2]; Human alphaherpesvirus 1, herpes simplex virus type 1, Vero cells, plaque reduction, 72 h, read-out: EC50 (μM), 50% effective concentration): 0.0039 µM
IC50 [3, 9]: 10 to 999 nM

COc1cccc(C(=O)c2oc3ccc4c(C)cc(=O)oc4c3c2-c2cccc(Br)c2)c1 [Compound 256]
IC50 [3, 9]: 10 to 999 nM

Cc1cc(=O)oc2c1ccc1oc(C(=O)c3cccs3)c(-c3cccs3)c12 [Compound 257]
IC50 [3, 9]: 10 to 999 nM

Cc1cc(=O)oc2c1ccc1oc(C(=O)c3cccs3)c(-c3cccc(Br)c3)c12 [Compound 259]
IC50 [3, 9]: 10 to 999 nM

CCOc1cccc(C(=O)c2oc3ccc4c(C)cc(=O)oc4c3c2-c2cccc(Br)c2)c1 [Compound 260]
IC50 [3, 9]: 10 to 999 nM

CCCCOc1cccc(C(=O)c2oc3ccc4c(C)cc(=O)oc4c3c2-c2cccc(Br)c2)c1 [Compound 262]
IC50 [3, 9]: 10 to 999 nM

CCCCCOc1cccc(C(=O)c2oc3ccc4c(C)cc(=O)oc4c3c2-c2cccc(Br)c2)c1 [Compound 263]
IC50 ([3]; MDCK cells, 72 h, ranges given, read-out: IC50 (concentration reducing virus-induced cytopathic effect by 50%)): 1000 to 5900 nM

CC(=O)N[C@H]1[C@H]([C@H](O)[C@H](O)CO)OC(C(=O)O)=C[C@@H]1N=C(N)N [Relenza, Zanamivir, reference compound]
IC50 ([3]; MDCK, CPE, Table 2, read-out: IC50): 62 ± 18 nM
IC50 [4]: 1060 ± 982 nM
IC50 (Influenza B/TW/710/05): 30 ± 19 nM
IC50 (Influenza B/TW/99/07): 99 ± 9 nM
IC50 [5]: 670 ± 232 nM
IC50 (Influenza B/TW/70325/05): 20 ± 10 nM
IC50 [6]: 350 ± 140 nM
IC50 [7]: 918 ± 26 nM
IC50 [8]: 30 ± 10 nM
IC50 (Enterovirus 71 (4643)): > 25000 nM
IC50 (Coxsackie B virus 3): > 25000 nM
IC50 (Human rhinovirus 2): > 25000 nM
